Values joined by “and” are separate entries in the source; they are usually repeats but may differ in a detail not shown here. Equal entries are not always repeated.
Legend:
[1] = In vitro SPF measurement in a chemical solvent (Diffey and Robson); details: ethyl acetate, 10 μg/ml, transmittance 290-400 nm
Protocol: The in vitro methods of determining the protective effectiveness of sun products consist of measuring by transmission spectrophotometry the absorption spectrum of the filter in solution or of the product applied on a substrate with the aim of simulating the surface of the skin. The effectiveness against UVB and/or UVA rays, or the effect on the cutaneous response, are then determined by calculation, taking into account or not the UV radiation action spectrum for the damage considered.
The Sayre/Agin and Diffey/Robson method, used since the 1990s, involves a comparative measurement, with the aid of an integrating-sphere spectroradiometer, of the transition from 290 nm to 400 nm in 5 nm steps, the sample being subjected to UV radiation from a stable known source covering the whole of the UV spectrum (unfiltered xenon).
Diffey and Robson evaluate the erythemal response by the following calculation:
[formula] E(λ)=spectral irradiation in W(m-^2) (nm^−1) at 40° N sun at 20° zenith angle • ε=erythematous capacity
[formula] N(λ)=number of values for a given wavelength
The Diffey and Robson formula makes it possible to determine SPF from the measurement of transmittance between 290 nm and 400 nm. Transmittance is measured in solution in ethyl acetate at a concentration of 10 μg/ml using a UV-visible spectrophotometer (Varian CARY 50 Scan).
[formula] T(λ)=transmittance at wavelength λ

[2] = Solubility study in solvents or excipients used in cosmetics; format: physicochemical; details: for Solubilities: Soluble (solvent in which the compound is soluble): value = solvent; for Solubilities: Insoluble (solvent in which the compound is insoluble): value = solvent named in the Insoluble column
[3] = Photostability in solution in a chemical solvent (Suntest CPS+); format: physicochemical; details: 25 μg deposited from methanol, absorbance vs non-irradiated control, in % (unit assumed); for Photostability at 5 MED, mean: Suntest irradiation 5 MED; for Photostability at 10 MED, mean: Suntest irradiation 10 MED
Description: A Suntest CPS+(Atlas, Linsengenicht/Altenhasslan, Germany) was used. The Suntest makes it possible to reproduce the solar spectrum and thus to carry out exposures inside at any time without weather constraints.
The radiance of the solar simulator was carefully measured with a spectroradiometer (MSS 2044, Bielefeld, Germany). UVB and UVA intensities were 0.49 mW/cm^2 and 6.32 mW/cm^2, respectively. The MED value defined by COLIPA is 5.6 J/cm^2 in total UV (22). The UV total (UVA+UVB) accounts for 14.8% of the energy delivered by the lamp (power 460 W/m^2). An irradiation dose equivalent to 1 MED corresponds to 37.83 J/cm^2 (in total spectrum) delivered by the lamp.
The Suntest test duration is calculated using the following formula: t=H/E with: • E=illumination energy in W/m^2 • H=irradiation dose in J/m^2 • t=duration of the test in s
The solutions of the compounds are prepared at a concentration of 500 μg/ml in methanol. 50 μl (25 μg) of each solution are deposited in a crystallizer, then irradiated in the Suntest at 5, 10 and/or 20 MED. A non-irradiated control is prepared (deposit of 50 μl of solution and addition of 2.450 ml of methanol). The solvent evaporates during irradiation and the products are taken up in 2.5 ml of methanol. After irradiation, the absorbance of each solution is measured with the UV-visible spectrophotometer (Varian CARY 50 Scan).

[4] = Spectral characteristics: molar extinction coefficient and specific absorbance (UV spectrophotometry in ethyl acetate); format: physicochemical; details: 10 μg/ml; for Maximum molar extinction coefficient UVA / Maximum specific absorbance UVA: UVA band; for Maximum molar extinction coefficient UVB / Maximum specific absorbance UVB: UVB band
Description: The calculation of the molar extinction coefficient (ε) is made from the Beer-Lambert law:
[formula] Wherein: • A=absorbance • I0=intensity of the incident light • I=intensity of the transmitted light • ε=molar extinction (or molar absorbance) coefficient in M^−1 cm^−1 • l=path length in cm • c=concentration in mol/l
The molar extinction coefficient can be expressed with respect to a given mass of the product. It thus makes it possible to be able to compare the coefficients of extinction between products for the same given quantity. This quantity is 1% by weight. The molar extinction coefficient thus becomes the specific absorbance (A1cm^1%).
It is expressed as follows:
[formula] Wherein: • A1cm^1%=specific absorbance • ε=molar extinction coefficient • M=molar mass
The spectral characteristics of the compounds in comparison with commercial filters at a concentration of 10 μg/ml are summarized in tables 2-1 and 2-2.
Procedure: The products are dissolved in ethyl acetate to a concentration of 10 μg/ml. The spectra are measured using a dual-beam spectrophotometer (Varian CARY 50 Scan) between 290 nm and 400 nm.

[5] = Spectral distribution in UVA and UVB, 290 nm to 400 nm; format: physicochemical; details: for Absorption peaks: range from 290 nm to 400 nm; for Spectral distribution (UV bands absorbed): absorption spectra, FIGS. 1-3
Description: The products tested are classified according to spectral distribution in UVA and UVB in a range from 290 nm to 400 nm. It is possible to differentiate them according to their spectral distribution: Products with a narrow spectrum: • Products absorbing in the range between 280 nm and 320 nm (UVB) • Products absorbing in the range between 320 nm and 400 nm (UVA) Products with a broad spectrum: • Products absorbing in UVB (280-320 nm) and UVA-II […] • Products covering UVB and UVA (280-400 nm).

[6] = excipient Finsol V NT ® (C12-C15 alkyl benzoate)
[7] = excipient PEG400 ® (polyethylene glycol)

Compound | SPF [1] | Solubility (%) [2, 6] [%] | Solubility (%) [2, 7] [%] | Solubilities: Soluble (solvent in which the compound is soluble) [2] | Solubilities: Insoluble (solvent in which the compound is insoluble) [2] | Photostability at 5 MED, mean [3] | Photostability at 10 MED, mean [3] | Maximum molar extinction coefficient UVA [4] [M⁻¹ cm⁻¹] | Maximum specific absorbance UVA ([4]; A1cm^1%) | Wavelength of maximum molar extinction coefficient UVA ([4]; the 'at ...' part of the cell) | Wavelength of maximum specific absorbance UVA ([4]; the 'at ...' part of the cell) | Absorption peaks [5] [nm] | Maximum molar extinction coefficient UVB [4] [M⁻¹ cm⁻¹] | Maximum specific absorbance UVB ([4]; A1cm^1%) | Wavelength of maximum molar extinction coefficient UVB ([4]; the 'at ...' part of the cell) | Wavelength of maximum specific absorbance UVB ([4]; the 'at ...' part of the cell) | Spectral distribution (UV bands absorbed) [5] | also measured
1,4-bis[5,6-(4,4′-dihexyl)-diphenyl-1,2,4-triazin-3-yl]benzene [WP96] | 68.02 | 1 | 2 | DMC and CHCl3 and Et2O and Toluene and Octanol and Methanol | EtOH and Myritol and Acetic acid | 83.30 | 74.35 | – | – | – | – | – | – | – | – | – | – | Solubility (%) ([2]; excipient Myritol 318 ® (caprylic/capric triglycerides)): 0.1%; Solubilities: Soluble, Transcutol ([2]; solvent Transcutol): Transcutol 0.5%
COc1ccc(C(=O)CC(=O)c2ccc(C(C)(C)C)cc2)cc1 [Parsol 1789 ®, reference compound] | 51.1 | – | – | – | – | – | – | 34100 | 1100 | at 360 nm | at 360 nm | 360 | – | – | – | – | – | Maximum molar extinction coefficient UVC ([4]; UVC band): 8633 at M^−1 cm^−1; Maximum specific absorbance UVC ([4]; A1cm^1%, UVC band): 278 at; Wavelength of maximum molar extinction coefficient UVC ([4]; the 'at ...' part of the cell): 275 nm; Wavelength of maximum specific absorbance UVC ([4]; the 'at ...' part of the cell): 275 nm
CCCCC(CC)COC(=O)C=Cc1ccc(OC)cc1 (stereo not shown) [Parsol MCX ®, reference compound] | 20.78 | – | – | – | – | – | – | – | – | – | – | 310 | 24600 | 848 | at 310 nm | at 310 nm | – | –
CC(C)(C)CC(C)(C)c1cc(Cc2cc(C(C)(C)CC(C)(C)C)cc(-n3nc4ccccc4n3)c2O)c(O)c(-n2nc3ccccc3n2)c1 [Tinosorb M ®, reference compound] | 54.07 | – | – | – | – | – | – | 36400 | 552 | at 345 nm | at 345 nm | – | 36600 | 556 | at 305 nm | at 305 nm | – | –
CCCCC(CC)COc1ccc(-c2nc(-c3ccc(OC)cc3)nc(-c3ccc(OCC(CC)CCCC)cc3O)n2)c(O)c1 (stereo not shown) [Tinosorb S ®, reference compound] | 76.19 | – | – | – | – | – | – | 49580 | 789 | at 345 nm | at 345 nm | – | 41750 | 751 | at 310 nm | at 310 nm | – | –
c1ccc(-c2nnc(-c3cccc(-c4nnc(-c5ccccc5)c(-c5ccccc5)n4)c3)nc2-c2ccccc2)cc1 [WP76, 1,3-bis(5,6-diphenyl-1,2,4-triazin-3-yl)benzene] | – | – | – | DMSO or hot DMF | Water and MeOH and CHCl3 and Acetone and Acetonitrile and Benzene | 69.23 | 62.53 | – | – | – | – | 290 | 54000 | 998 | at 290 nm | at 290 nm | absorbs in UVB | –
CC(C)(C)c1ccc(-c2nnc(-c3ccc(-c4nnc(-c5ccc(C(C)(C)C)cc5)c(-c5ccc(C(C)(C)C)cc5)n4)cc3)nc2-c2ccc(C(C)(C)C)cc2)cc1 [WP104, 1,4-bis[5,6-(4,4′-4-di-tert-butyl)-diphenyl-1,2,4-triazin-3-yl]benzene] | 79.35 | – | – | DCM and CHCl3 and Toluene and DMSO and Ethyl acetate | EtOH and MeOH and 1-Octanol and Acetic acid and Myritol and Transcutol | 93.70 | 88.55 | – | – | – | – | 300 | 90000 | 1176 | at 300 nm | at 300 nm | absorb in UVB and UVA | –
CCCCCCCCCCCCc1ccc(-c2nnc(-c3ccc(-c4nnc(-c5ccc(CCCCCCCCCCCC)cc5)c(-c5ccc(CCCCCCCCCCCC)cc5)n4)cc3)nc2-c2ccc(CCCCCCCCCCCC)cc2)cc1 [WP107, 1,4-bis[5,6-bis(4-dodecylphenyl)-1,2,4-triazine-3-yl]benzene] | – | 1 | 1 | DCM and CHCl3 and Toluene and Octanol and Ethyl acetate and DMSO | EtOH and Acetic acid and MeOH and Myritol and Transcutol | 89.27 | 84.75 | 95000 | 783 | at 335 nm | at 335 nm | 300 | 92000 | 757 | at 300 nm | at 300 nm | absorb in UVB and UVA | Solubility (%) ([2]; excipient Arlasolve DMI ® (dimethyl isosorbide)): 1%
CC(C)CCC(C)(C)c1ccc(-c2nnc(-c3ccc(-c4nnc(-c5ccc(C(C)(C)CCC(C)C)cc5)c(-c5ccc(C(C)(C)CCC(C)C)cc5)n4)cc3)nc2-c2ccc(C(C)(C)CCC(C)C)cc2)cc1 [WP151] | 67.2 | 5 | 0.5 | – | – | 76.16 | 70.15 | 60500 | 611 | at 340 nm | at 340 nm | 340 | – | – | – | – | absorb in UVB and UVA | Solubility (%) ([2]; excipient Isopropyl adipate): 1%; Solubility (%) ([2]; excipient Myritol 331 ® (cocoglycerides)): 2%

— patent US7816520B2, “5,6-diphenyl-1,2,4-triazinic dimeric derivatives and the use thereof in the form of sun-protective agents” (Pierre Fabre Dermo-Cosmetique, priority 2004, dated 2010)
